The values that follow come from article PMC6335354, “Chitosan Grafted With β-Cyclodextrin: Synthesis, Characterization, Antimicrobial Activity, and Role as Absorbefacient and Solubilizer” (Frontiers in Chemistry, 2019).

In brackets after ≈: the same amount, converted by molar mass. Structures can show the parent of a compound that is named as a salt. Where two headings read alike, the source gives them in different places.

Data set [1] can be described thus: physchem. As to conditions: thermodynamic from solid. On the procedure: Aqueous solubility measurements were conducted according to the method of Wang and Wang ([2000]). […] The mixture was agitated until reaching equilibrium with water in the equilibrium cell and then kept for 30 min. A known amount of the upper layer of the mixture was removed from the equilibrium cell and diluted with distilled water. The calibration curve established by ultraviolet–visible spectrophotometry (UV–Vis) was used to determine the concentration of the solution.

Data set [2] can be described thus: Solubilization of sulfonamides with CD-g-CS (UV-Vis). The note with it: for solubility at 2 h: 25 °C, aqueous with cosolvent or surfactant or cyclodextrin, thermodynamic from solid, solubility with CD-g-CS. On the procedure:
Acetic acid [1 mL, 1 % (v/v)] was used to dissolve 10 mg of CD-g-CS, and the pH of the solution was adjusted to be similar to that of the distilled water. […] A vortex mixer was used to mix the suspension followed by sonication for 20 min. The mixture was then stirred for 2 h at 25°C followed by the centrifugation of the suspension at 8,000 r/min for 10 min. The supernatant was filtered using a membrane with 0.45-μm pore size.

For data set [3] the following is noted: added 6 μg/mL (sulfamethoxazole 8 μg/mL). The method, then: The stability test was performed by keeping the samples for 0h, 1h, 2h, 4h, 6h, 8h, 24h at room temperature before analysis. […] S2.
Data set [4] deals with S. xylosus. The experiment in a line: Uptake of doxorubicin hydrochloride by flow cytometry (FCS). Format: cell-based, Staphylococcus xylosus. The note with it: 50 μmol/L doxorubicin hydrochloride, CD-g-CS 0.5, 2, 5 mg/mL, 1 h, 37°C. The method, then: The cultured S. xylosus in the logarithmic phase were mixed with CD-g-CS (5, 2, or 0.5 mg/mL) containing 50 μmol/L doxorubicin hydrochloride. The mixtures were incubated at 37°C for 1 h. Subsequently, the S. xylosus solutions were centrifuged, washed three times with PBS (pH = 7.2), and resuspended in 500 μL PBS. For each sample, S. xylosus was sorted using a Flow Cytometry System (FCS). S. xylosus treated with only doxorubicin hydrochloride served as a control.
In general terms: Flow cytometry measures light scatter and fluorescence of single cells or particles in a stream.

For data set [5], the system named is S. xylosus. In words: Uptake of doxorubicin hydrochloride by CLSM. As to conditions: 50 μmol/L doxorubicin hydrochloride, 2 mg/mL CD-g-CS, 30 min, 1 and 3 h. Type of data set: cell-based, Staphylococcus xylosus. The method, then:
Cultured S. xylosus in the logarithmic phase was mixed with 2 mg/mL CD-g-CS containing 50 μmol/L doxorubicin hydrochloride. The mixtures were incubated at 37°C for 30 min, 1 or 3 h. The mixtures of S. xylosus were then centrifuged, washed three times, and re-suspended in 500 μL PBS (pH = 7.2). Each sample with S. xylosus was placed on a glass slide and observed by confocal laser scanning microscopy (CLSM). S. xylosus treated with only doxorubicin hydrochloride for 30 min, 1 or 3 h served as the control.

As a reminder, the solubility is the concentration that dissolves in the medium under given conditions. Lower therefore signals a poorly soluble substance. `Nc1ccc(S(=O)(=O)Nc2ncccn2)cc1` [sulfadiazine] gave a solubility in data set [1] (water) of 26 ± 1.68 µg/mL (≈ 104 µM). Further, the solubility at 2 h in data set [2] (10 mg/mL CD-g-CS solution, with 10 mg/mL CD-g-CS (QCD = 0.6 × 10^2 μmol/g)) worked out at 147 ± 7.05 µg/mL (≈ 587 µM); in data set [2] (10 mg/mL CD-g-CS solution, with 10 mg/mL CD-g-CS (QCD = 0.643 × 10^3 μmol/g)), 236 ± 4.25 µg/mL (≈ 943 µM). The “solubility enhancement compared to the aqueous solution” value in data set [2] (with 10 mg/mL CD-g-CS (QCD = 0.6 × 10^2 μmol/g)) is “approximately 5.6 times”; in data set [2] (with 10 mg/mL CD-g-CS (QCD = 0.643 × 10^3 μmol/g)), 9.1 times. In addition, the Measured concentration in data set [3] (0h at room temperature) amounted to 5.98 ± 0.078 µg/mL; in data set [3] (1h at room temperature) it was 6.04 ± 0.058 µg/mL; in data set [3] (2h at room temperature), 6.13 ± 0.013 µg/mL; in data set [3] (4h at room temperature) it was 5.89 ± 0.047 µg/mL; in data set [3] (6h at room temperature), 5.95 ± 0.055 µg/mL; in data set [3] (8h at room temperature), 6.14 ± 0.043 µg/mL. For the same compound, the Measured concentration in data set [3] (24h at room temperature) stood at 6.02 ± 0.054 µg/mL.

In data set [1] (distilled water), `COc1cc(NS(=O)(=O)c2ccc(N)cc2)ncn1` [sulfamonomethoxine] had a solubility of 69 ± 1.59 µg/mL (≈ 246 µM). In data set [2], this compound gave a solubility at 2 h of 283 ± 13 µg/mL (≈ 1010 µM). Also, the Measured concentration turned out to be 6.09 ± 0.060 µg/mL in data set [3] (0h at room temperature); 6.09 ± 0.026 µg/mL in data set [3] (1h at room temperature); 5.93 ± 0.021 µg/mL in data set [3] (2h at room temperature); 6.12 ± 0.018 µg/mL in data set [3] (4h at room temperature); 5.88 ± 0.018 µg/mL in data set [3] (6h at room temperature); 6.12 ± 0.046 µg/mL in data set [3] (8h at room temperature). For the same compound, the Measured concentration in data set [3] (24h at room temperature) turned out to be 6.13 ± 0.015 µg/mL.

As for `COc1cccc2c1C(=O)c1c(O)c3c(c(O)c1C2=O)C[C@@](O)(C(=O)CO)C[C@@H]3O[C@H]1C[C@H](N)[C@H](O)[C@H](C)O1` [doxorubicin hydrochloride], the “uptake of doxorubicin hydrochloride (fluorescence intensity, FCS)” value in data set [4] was “very low”. Besides, the “uptake of doxorubicin hydrochloride (fluorescence intensity, CLSM)” value in data set [5] was “very weak”.
